According to patent US20100190807A1, “CDKI Pathway inhibitors and uses thereof to regulate expression to TAU protein” (Senex Biotechnology, Inc., priority 2008, published 2010):

Target: T1, NFκB (p50 and p65 subunits) (Homo sapiens, UniProt P19838+Q04206)
T1 construct: endogenous in cells; control or TNFα-treated
Assay: TransAM NFκB p65 and p50 transcription factor assay (oligonucleotide binding)
Format: cell-based
Text: The left set of bars represents cells treated with carrier control, the middle set represents cells treated with SNX2, and the right set represents cells treated with a known inhibitor of NFκB binding (TPCK).
We also tested if these compounds could act as the inhibitors of NFκB, by measuring cellular levels of p50 or p65 subunits binding oligonucleotides containing NFκB consensus binding site, using ACTIVE MOTIF TransAM™ NFκB p65 Chemi and NFκB p50 Chemi Transcription Factor Assay Kits.

T1 sequence (P19838 1-433 limits assumed): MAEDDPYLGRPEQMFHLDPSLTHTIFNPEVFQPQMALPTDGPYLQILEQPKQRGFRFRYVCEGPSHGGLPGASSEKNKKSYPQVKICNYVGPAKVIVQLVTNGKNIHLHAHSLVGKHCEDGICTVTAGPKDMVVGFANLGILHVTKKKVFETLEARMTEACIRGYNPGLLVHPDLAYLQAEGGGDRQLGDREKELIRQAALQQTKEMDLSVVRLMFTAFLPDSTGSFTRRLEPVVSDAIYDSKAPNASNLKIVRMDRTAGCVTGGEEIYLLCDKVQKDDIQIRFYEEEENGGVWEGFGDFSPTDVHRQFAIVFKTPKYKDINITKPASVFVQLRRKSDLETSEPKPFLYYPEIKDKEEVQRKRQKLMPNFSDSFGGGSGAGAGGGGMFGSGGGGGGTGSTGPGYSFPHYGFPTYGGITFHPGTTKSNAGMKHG
T1 sequence (Q04206 whole entry): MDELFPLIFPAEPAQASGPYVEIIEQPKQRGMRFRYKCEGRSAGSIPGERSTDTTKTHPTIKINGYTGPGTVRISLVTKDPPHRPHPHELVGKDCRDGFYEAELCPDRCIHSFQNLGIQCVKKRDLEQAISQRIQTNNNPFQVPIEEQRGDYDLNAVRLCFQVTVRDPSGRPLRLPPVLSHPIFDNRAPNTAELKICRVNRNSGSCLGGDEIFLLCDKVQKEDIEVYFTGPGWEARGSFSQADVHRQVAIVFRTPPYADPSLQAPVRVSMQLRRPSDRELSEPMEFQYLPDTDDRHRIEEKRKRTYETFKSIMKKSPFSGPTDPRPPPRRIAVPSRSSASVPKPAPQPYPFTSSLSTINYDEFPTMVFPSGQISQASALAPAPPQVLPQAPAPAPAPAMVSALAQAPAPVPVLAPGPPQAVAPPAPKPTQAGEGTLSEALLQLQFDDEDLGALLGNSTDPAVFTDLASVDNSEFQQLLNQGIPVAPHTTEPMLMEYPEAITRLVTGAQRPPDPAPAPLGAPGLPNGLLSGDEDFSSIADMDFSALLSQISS

## Cc1ccc(S(=O)(=O)N[C@@H](Cc2ccccc2)C(=O)CCl)cc1 [TPCK]
TNFα-treated cells
  TNFα-induced NFκB activity: completely blocks
Control cells
  basal NFκB activity: completely blocks
